Test systems include SNB-19; NCI/ADR-RES; HL-60; UO-31; NCI-H522; A498; DU-145; U-251; HOP-92; CAKI-1; EKVX; CCRF-CEM; A549; HOP-62; UACC-62; SNB-75; TK-10; SK-MEL-5; M14; HCC 2998.
Common to all, as to experiment: NCI-60 cell line screen, 48 h

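Values below derive from 48-hour exposures of cells grown in 96-well plates, with endpoints linearly interpolated between the two concentrations bracketing the appropriate inhibition level. Here, GI50 denotes the concentration required for 50% inhibition of growth.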 Active and inactive are the calls of the source. Rule as the data show it: active = GI50 up to about 1.1 µM and inactive = higher.

Eleven compounds from ChEMBL document CHEMBL1201862, “PubChem BioAssay data set” (2004) can be followed below.

In the case of `CC1(C)CC(=O)C2=C(C1)c1c(ccc3ccccc13)NC2c1cn(Cc2ccc(Cl)cc2)c2ccccc12` (stereo not given), the GI50 with SNB-19 is 75 µM (inactive); with NCI/ADR-RES it was 52.6 µM (inactive); in the test with HL-60 it was 37.8 µM (inactive); with UO-31 it was > 100 µM (inactive); with NCI-H522, 66.8 µM (inactive); in the test with A498, 2.55 µM (inactive). For the same compound, the GI50 is > 100 µM (inactive) in the test on DU-145; 56.8 µM (inactive) in the test on U-251; 27.7 µM (inactive) with HOP-92; 13.3 µM (inactive) with CAKI-1; 30.7 µM (inactive) in the test with EKVX; 55.7 µM (inactive) in the test with CCRF-CEM. Moreover, the GI50 in the test on A549 is > 100 µM (inactive); in the test with HOP-62, 40.9 µM (inactive); in the test with UACC-62, > 100 µM (inactive); in the test on SNB-75, > 100 µM (inactive); with TK-10, 27.7 µM (inactive); in the test on SK-MEL-5 it was > 100 µM (inactive). Further, the GI50 in the test on M14 was > 100 µM (inactive).

In the case of `C#CCOC(=O)[C@@H](C)c1ccc2cc(OC)ccc2c1`, the GI50 is > 100 µM (inactive) with SNB-19; 68.2 µM (inactive) in the test on NCI/ADR-RES; 15.1 µM (inactive) in the test on HL-60; 94 µM (inactive) with UO-31; 40.2 µM (inactive) in the test with NCI-H522; > 100 µM (inactive) in the test with A498. Moreover, the GI50 with DU-145 was > 100 µM (inactive); with U-251, > 100 µM (inactive); with HOP-92, 79.6 µM (inactive); in the test on CAKI-1, > 100 µM (inactive); with EKVX, 66.2 µM (inactive); in the test with CCRF-CEM, 31.1 µM (inactive). The GI50 in the test with HOP-62 is > 100 µM (inactive); in the test on UACC-62 it was > 100 µM (inactive); in the test with SNB-75, 34.3 µM (inactive); in the test on TK-10 it was > 100 µM (inactive); in the test on SK-MEL-5, 40.9 µM (inactive); in the test with M14, > 100 µM (inactive).

On to `O=C1CSC(c2c[nH]c3ccccc23)N1c1ccc(Cl)cc1` (stereo not given), for which the GI50 in the test with SNB-19, with NCI/ADR-RES, with HL-60, with UO-31, with A498 and in the test with DU-145 was > 100 µM (inactive) in each case. For the same compound, the GI50 in the test on U-251 was > 100 µM (inactive); in the test with HOP-92, 2.85 µM (inactive); with EKVX it was 59.7 µM (inactive); with HCC 2998, > 100 µM (inactive); in the test on A549 it was > 100 µM (inactive); in the test on HOP-62, > 100 µM (inactive). For the same compound, the GI50 was > 100 µM (inactive) in the test with UACC-62; 37.1 µM (inactive) with SNB-75; > 100 µM (inactive) in the test on TK-10; > 100 µM (inactive) in the test on SK-MEL-5; > 100 µM (inactive) in the test on M14.

For `O=C(Cc1ccccc1)NCCc1ccc(O)c(O)c1`, the GI50 is > 100 µM (inactive) with SNB-19; > 100 µM (inactive) in the test with NCI/ADR-RES; 13.8 µM (inactive) in the test on HL-60; 41.2 µM (inactive) in the test on UO-31; 28.4 µM (inactive) with NCI-H522; > 100 µM (inactive) with A498. For the same compound, the GI50 is > 100 µM (inactive) in the test with DU-145; 78.7 µM (inactive) in the test on U-251; > 100 µM (inactive) in the test with HOP-92; > 100 µM (inactive) in the test with EKVX; 5.14 µM (inactive) in the test on CCRF-CEM; > 100 µM (inactive) in the test with HCC 2998. The GI50 in the test with A549 is > 100 µM (inactive); in the test on HOP-62, > 100 µM (inactive); in the test on UACC-62, 48.9 µM (inactive); with SNB-75 it was > 100 µM (inactive); with TK-10 it was > 100 µM (inactive); in the test on SK-MEL-5, > 100 µM (inactive). Besides, in the test with M14, the GI50 is > 100 µM (inactive).

With `Nc1nc(N)c(/N=N/c2ccc(C(=O)O)c(O)c2)c(N)n1`, the GI50 was > 100 µM (inactive) in the test with SNB-19; > 100 µM (inactive) in the test on NCI/ADR-RES; > 100 µM (inactive) in the test on UO-31; 26.8 µM (inactive) in the test on NCI-H522; > 100 µM (inactive) in the test with A498; > 100 µM (inactive) in the test with DU-145. In addition, the GI50 in the test with U-251 was > 100 µM (inactive); in the test on HOP-92, 92.5 µM (inactive); in the test on CAKI-1, > 100 µM (inactive); in the test on EKVX, 91.6 µM (inactive); in the test with CCRF-CEM it was > 100 µM (inactive); with A549 it was > 100 µM (inactive). Further, the GI50 in the test with HOP-62, with UACC-62, in the test on SNB-75, with TK-10, with SK-MEL-5 and in the test on M14 was > 100 µM (inactive) each time.

Consider `CCOC1=C/C(=N\Nc2ccc([N+](=O)[O-])cc2)CCC1`, for which the GI50 in the test on SNB-19 is 34.7 µM (inactive); with NCI/ADR-RES, 30.1 µM (inactive); in the test with HL-60, 13.6 µM (inactive); in the test with UO-31, 12.1 µM (inactive); in the test with NCI-H522 it was 4.45 µM (inactive); in the test on A498 it was 26.3 µM (inactive). The GI50 in the test with DU-145 is > 100 µM (inactive); in the test with U-251 it was 19.3 µM (inactive); in the test on HOP-92, 39.8 µM (inactive); in the test with CAKI-1, 28.8 µM (inactive); in the test with EKVX it was 87.9 µM (inactive); in the test with A549, 71.6 µM (inactive). Further, the GI50 is 37.5 µM (inactive) with HOP-62; 22.5 µM (inactive) with UACC-62; 26.4 µM (inactive) with SNB-75; 25.5 µM (inactive) in the test with TK-10; 18.9 µM (inactive) in the test on SK-MEL-5; 49.4 µM (inactive) with M14.

Turning to `CCCCCCNC(=S)N/N=C(\C)c1ccccn1`, the GI50 with SNB-19 is 3.4 µM (inactive); in the test with NCI/ADR-RES, < 0.01 µM (active); with HL-60, < 0.01 µM (active); in the test with UO-31, 0.124 µM (active); in the test on NCI-H522, 0.06 µM (active); in the test with A498, 3.18 µM (inactive). For the same compound, the GI50 was 1.52 µM (inactive) in the test on DU-145; 0.2 µM (active) with U-251; < 0.01 µM (active) in the test on CAKI-1; 0.0176 µM (active) in the test on EKVX; < 0.01 µM (active) with CCRF-CEM; 0.741 µM (active) in the test with HCC 2998. For the same compound, the GI50 in the test on A549 was 0.12 µM (active); in the test with HOP-62 it was 0.0445 µM (active); in the test with UACC-62, 0.182 µM (active); in the test on SNB-75, 3.99 µM (inactive); with TK-10, 0.55 µM (active); in the test on SK-MEL-5, 0.299 µM (active). Besides, the GI50 with M14 is 0.0337 µM (active).

For `CSc1nc(N)c(NC2OC(CO)C(O)C2O)c(=O)[nH]1` (stereo not given), the GI50 with SNB-19, in the test on NCI/ADR-RES, in the test with HL-60, in the test with UO-31, with NCI-H522 and with A498 was > 100 µM (inactive) each time. The GI50 in the test on DU-145, in the test with U-251, with CAKI-1, with EKVX, in the test on CCRF-CEM and in the test with A549 was > 100 µM (inactive) in each case. The GI50 in the test on HOP-62, with UACC-62, in the test with SNB-75, in the test on TK-10, in the test with SK-MEL-5 and in the test on M14 was > 100 µM (inactive) each time.

For the compound `CN1CC=C(c2c(N)nc(N)[nH]c2=O)CC1`, the GI50 with SNB-19, with NCI/ADR-RES, in the test with HL-60, in the test with UO-31, in the test with NCI-H522 and with A498 was > 100 µM (inactive) each time. Further, the GI50 in the test with DU-145, in the test with U-251, with HOP-92, with CAKI-1, in the test on EKVX and with CCRF-CEM was > 100 µM (inactive) in each case. Moreover, the GI50 in the test with A549 was > 100 µM (inactive); in the test on HOP-62 it was > 100 µM (inactive); with UACC-62, > 100 µM (inactive); with SNB-75, 65.6 µM (inactive); in the test with SK-MEL-5, > 100 µM (inactive); in the test with M14, > 100 µM (inactive).

`CC(=O)Nc1c(C)cc2c(nc3n2CCC3OC(C)=O)c1[N+](=O)[O-]` (stereo not given): the GI50 in the test on SNB-19, in the test on NCI/ADR-RES, in the test on HL-60, in the test with UO-31, in the test on NCI-H522 and with A498 was > 100 µM (inactive) in each case. The GI50 with DU-145, in the test with U-251, in the test on HOP-92, in the test with CAKI-1, with EKVX and in the test on CCRF-CEM was > 100 µM (inactive) throughout. Moreover, the GI50 in the test on A549, with UACC-62, in the test with SNB-75, with SK-MEL-5 and with M14 was > 100 µM (inactive) throughout.

As to `COc1ccc2c3c([nH]c2c1)CCN(CCCC(=O)c1ccc(F)cc1)C3`, the GI50 in the test on SNB-19 is 14.8 µM (inactive); in the test with NCI/ADR-RES, 18.6 µM (inactive); in the test with HL-60 it was 15 µM (inactive); in the test on UO-31, 14 µM (inactive); in the test on NCI-H522, 23.3 µM (inactive); in the test with A498, 16 µM (inactive). Moreover, the GI50 in the test with DU-145 is 18.7 µM (inactive); in the test with U-251, 17.2 µM (inactive); in the test with CAKI-1 it was 16 µM (inactive); in the test with EKVX it was 12.8 µM (inactive); with CCRF-CEM it was 19.8 µM (inactive); with HCC 2998, 5.53 µM (inactive). For the same compound, the GI50 with A549 is 17.1 µM (inactive); in the test on HOP-62 it was 12.2 µM (inactive); with UACC-62, 13.8 µM (inactive); with SNB-75 it was 12.2 µM (inactive); with TK-10, 15.5 µM (inactive); with SK-MEL-5 it was 13.2 µM (inactive). Moreover, the GI50 in the test with M14 is 15.5 µM (inactive).
